Results from patent US10669270B2, “Amide-sulfamide derivatives, compositions, and uses related to CXCR4 inhibition” (Emory University, priority 2016, dated 2020).

biological target: T1, CXCR4 (Homo sapiens, UniProt P61073); test: Primary binding affinity screening (competition with biotinylated TN14003 on MDA-MB-231 cells); settings: EC relative to AMD3100
T1 construct: endogenous in cells; host or cells: MDA-MB-231
Protocol: For binding affinity assay, 2×10^4 MDA-MB-231 cells in 300 μL of cell culture medium were seeded in an 8-well slide chamber 2 days before the experiments were conducted. Various concentrations of different compounds (1, 10, 100, or 1000 nM) were added to the separate wells and incubated for 10 minutes at room temperature, and then the cells were fixed in 4% ice-cold paraformaldehyde. The cells were rehydrated in phosphate-buffered saline (PBS). The slides were subsequently incubated for 30 minutes at room temperature with 0.05 μg/mL biotinylated TN14003, washed three times with PBS, and incubated in streptavidin-rhodamine (1:150 dilution; Jackson ImmunoResearch Laboratories, West Grove, Pa.) for 30 minutes at room temperature. Finally, the slides were washed with PBS and mounted in an anti-fade mounting solution (Molecular Probes, Eugene, Oreg.), and the samples were analyzed on a Nikon Eclipse E800 microscope.

T1 sequence (P61073 whole entry): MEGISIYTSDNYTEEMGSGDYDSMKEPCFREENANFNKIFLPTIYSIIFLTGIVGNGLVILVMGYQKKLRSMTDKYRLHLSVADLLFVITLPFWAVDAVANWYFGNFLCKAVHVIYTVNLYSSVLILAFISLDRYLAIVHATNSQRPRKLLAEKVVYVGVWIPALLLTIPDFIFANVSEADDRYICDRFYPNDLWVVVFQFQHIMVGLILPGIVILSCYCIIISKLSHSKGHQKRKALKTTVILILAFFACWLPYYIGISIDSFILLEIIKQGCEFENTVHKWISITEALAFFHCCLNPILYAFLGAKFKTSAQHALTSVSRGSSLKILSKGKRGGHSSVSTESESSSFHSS

potency compared with AMD3100	Compound
1000 fold	Cc1ccccc1C(=O)NCc1ccc(CNS(=O)(=O)c2ccccc2)cc1 [IIIb, 2-Methyl-N-(4-(phenylsulfonamidomethyl)benzyl)benzamide]
1000 fold	COc1ccccc1C(=O)NCc1ccc(CNS(=O)(=O)c2ccccc2)cc1 [IIIe, 2-Methoxy-N-(4-(phenylsulfonamidomethyl)benzyl)benzamide]
1000 fold	O=C(NCc1ccc(CNS(=O)(=O)c2ccccc2)cc1)c1ccc(F)cc1 [IIIj, 4-Fluoro-N-(4-(phenylsulfonamidomethyl)benzyl)benzamide]
1000 fold	Fluoro-N-(4-(phenylsulfonamidomethyl)benzyl)benzamide [IIIi]

same assay, conditions: MDA-MB-231 cells; compounds at 1, 10, 100, or 1000 nM; biotinylated TN14003

EC	Compound
1 nM	Cc1ccccc1C(=O)NCc1ccc(CNS(=O)(=O)c2ccccc2)cc1 [IIIb, 2-Methyl-N-(4-(phenylsulfonamidomethyl)benzyl)benzamide]
1 nM	COc1ccccc1C(=O)NCc1ccc(CNS(=O)(=O)c2ccccc2)cc1 [IIIe, 2-Methoxy-N-(4-(phenylsulfonamidomethyl)benzyl)benzamide]
1 nM	O=C(NCc1ccc(CNS(=O)(=O)c2ccccc2)cc1)c1ccc(F)cc1 [IIIj, 4-Fluoro-N-(4-(phenylsulfonamidomethyl)benzyl)benzamide]
1 nM	O=C(NCc1ccc(CNS(=O)(=O)c2ccccc2)cc1)c1ccc(CNc2ncccn2)cc1 [N-(4-(phenylsulfonamidomethyl)benzyl)-4-((pyrimidin-2-ylamino)methyl)benzamide]
1 nM	Fluoro-N-(4-(phenylsulfonamidomethyl)benzyl)benzamide [IIIi]

tested on: not given; test: not given; settings: not given

melting point	Compound
129 to 131 °C	Cc1ccccc1C(=O)NCc1ccc(CNS(=O)(=O)c2ccccc2)cc1 [IIIb, 2-Methyl-N-(4-(phenylsulfonamidomethyl)benzyl)benzamide]
112 to 114 °C	Cc1cccc(C(=O)NCc2ccc(CNS(=O)(=O)c3ccccc3)cc2)c1 [IIIc, 3-Methyl-N-(4-(phenylsulfonamidomethyl)benzyl)benzamide]
188 to 190 °C	Cc1ccc(C(=O)NCc2ccc(CNS(=O)(=O)c3ccccc3)cc2)cc1 [IIId, 4-Methyl-N-(4-(phenylsulfonamidomethyl)benzyl)benzamide]
123 to 125 °C	COc1ccccc1C(=O)NCc1ccc(CNS(=O)(=O)c2ccccc2)cc1 [IIIe, 2-Methoxy-N-(4-(phenylsulfonamidomethyl)benzyl)benzamide]
120 to 122 °C	COc1cccc(C(=O)NCc2ccc(CNS(=O)(=O)c3ccccc3)cc2)c1 [IIIf, 3-Methoxy-N-(4-(phenylsulfonamidomethyl)benzyl)benzamide]
164 to 166 °C	COc1ccc(C(=O)NCc2ccc(CNS(=O)(=O)c3ccccc3)cc2)cc1 [IIIg, 4-Methoxy-N-(4-(phenylsulfonamidomethyl)benzyl)benzamide]
122 to 124 °C	O=C(NCc1ccc(CNS(=O)(=O)c2ccccc2)cc1)c1ccccc1F [IIIh, 2-Fluoro-N-(4-(phenylsulfonamidomethyl)benzyl)benzamide]
116 to 118 °C	O=C(NCc1ccc(CNS(=O)(=O)c2ccccc2)cc1)c1ccccc1Cl [IIIk, 2-Chloro-N-(4-(phenylsulfonamidomethyl)benzyl)benzamide]
114 to 116 °C	O=C(NCc1ccc(CNS(=O)(=O)c2ccccc2)cc1)c1cccc(Cl)c1 [IIIm, 3-Chloro-N-(4-(phenylsulfonamidomethyl)benzyl)benzamide]
182 to 184 °C	O=C(NCc1ccc(CNS(=O)(=O)c2ccccc2)cc1)c1ccc(Cl)cc1 [IIIn, 4-Chloro-N-(4-(phenylsulfonamidomethyl)benzyl)benzamide]
201 to 203 °C	O=C(NCc1ccc(CNS(=O)(=O)c2ccccc2)cc1)c1ccc([N+](=O)[O-])cc1 [IIIo, 4-Nitro-N-(4-(phenylsulfonamidomethyl)benzyl)benzamide]
158 to 160 °C	O=C(NCc1ccc(CNS(=O)(=O)c2ccccc2)cc1)c1c(Cl)cc(Cl)cc1Cl [IIIp, 2,4,6-Trichloro-N-(4-(phenylsulfonamidomethyl)benzyl)benzamide]
109 to 111 °C	O=C(NCc1ccc(CNS(=O)(=O)c2ccccc2)cc1)c1cccnc1 [IIIq, N-(4-(phenylsulfonamidomethyl)benzyl)nicotinamide]
154 to 156 °C	O=C(NCc1ccc(CNS(=O)(=O)c2ccccc2)cc1)c1ccncc1 [IIIr, N-(4-(phenylsulfonamidomethyl)benzyl)isonicotinamide]
162 to 164 °C	Cc1ccc(S(=O)(=O)NCc2ccc(CNC(=O)c3ccccc3)cc2)cc1 [IIa, N-(4-((4-methylphenylsulfonamido)methyl)benzyl)benzamide]
147 to 149 °C	Cc1ccc(S(=O)(=O)NCc2ccc(CNC(=O)c3ccccc3C)cc2)cc1 [IIb, 2-Methyl-N-(4-((4-methylphenylsulfonamido)methyl)benzyl)benzamide]
123 to 125 °C	Cc1ccc(S(=O)(=O)NCc2ccc(CNC(=O)c3cccc(C)c3)cc2)cc1 [IIc, 3-Methyl-N-(4-((4-methylphenylsulfonamido)methyl)benzyl)benzamide]
180 to 182 °C	Cc1ccc(C(=O)NCc2ccc(CNS(=O)(=O)c3ccc(C)cc3)cc2)cc1 [IId, 4-Methyl-N-(4-((4-methylphenylsulfonamido)methyl)benzyl)benzamide]
154 to 156 °C	COc1ccccc1C(=O)NCc1ccc(CNS(=O)(=O)c2ccc(C)cc2)cc1 [IIe, 2-Methoxy-N-(4-((4-methylphenylsulfonamido)methyl)benzyl)benzamide]

melting point	Compound
130 to 132 °C	COc1cccc(C(=O)NCc2ccc(CNS(=O)(=O)c3ccc(C)cc3)cc2)c1 [IIf, 3-Methoxy-N-(4-((4-methylphenylsulfonamido)methyl)benzyl)benzamide]
147 to 149 °C	COc1ccc(C(=O)NCc2ccc(CNS(=O)(=O)c3ccc(C)cc3)cc2)cc1 [IIg, 4-Methoxy-N-(4-((4-methylphenylsulfonamido)methyl)benzyl)benzamide]
138 to 140 °C	Cc1ccc(S(=O)(=O)NCc2ccc(CNC(=O)c3ccccc3F)cc2)cc1 [IIh, 2-Fluoro-N-(4-((4-methylphenylsulfonamido)methyl)benzyl)benzamide]
137 to 139 °C	Cc1ccc(S(=O)(=O)NCc2ccc(CNC(=O)c3cccc(F)c3)cc2)cc1 [IIi, 3-Fluoro-N-(4-((4-methylphenylsulfonamido)methyl)benzyl)benzamide]
140 to 142 °C	Cc1ccc(S(=O)(=O)NCc2ccc(CNC(=O)c3ccccc3Cl)cc2)cc1 [IIk, 2-Chloro-N-(4-((4-methylphenylsulfonamido)methyl)benzyl)benzamide]
110 to 112 °C	Cc1ccc(S(=O)(=O)NCc2ccc(CNC(=O)c3cccc(Cl)c3)cc2)cc1 [IIm, 3-Chloro-N-(4-((4-methylphenylsulfonamido)methyl)benzyl)benzamide]
201 to 203 °C	Cc1ccc(S(=O)(=O)NCc2ccc(CNC(=O)c3ccc(Cl)cc3)cc2)cc1 [IIn, 4-Chloro-N-(4-((4-methylphenylsulfonamido)methyl)benzyl)benzamide]
207 to 209 °C	Cc1ccc(S(=O)(=O)NCc2ccc(CNC(=O)c3ccc([N+](=O)[O-])cc3)cc2)cc1 [IIo, N-(4-((4-methylphenylsulfonamido)methyl)benzyl)-4-nitrobenzamide]
188 to 190 °C	Cc1ccc(S(=O)(=O)NCc2ccc(CNC(=O)c3c(Cl)cc(Cl)cc3Cl)cc2)cc1 [IIp, 2,4,6-Trichloro-N-(4-((4-methylphenylsulfonamido)methyl)benzyl)benzamide]
120 to 122 °C	Cc1ccc(S(=O)(=O)NCc2ccc(CNC(=O)c3cccnc3)cc2)cc1 [IIq, N-(4-((4-methylphenylsulfonamido)methyl)benzyl)nicotinamide]
163 to 165 °C	Cc1ccc(S(=O)(=O)NCc2ccc(CNC(=O)c3ccncc3)cc2)cc1 [IIr, N-(4-((4-methylphenylsulfonamido)methyl)benzyl)isonicotinamide]
180 to 182 °C	O=C(NCc1ccc(CNS(=O)(=O)c2ccc3c(c2)CCO3)cc1)c1cc2ccccn2n1 [Ib, N-(4-((2,3-dihydrobenzofuran-5-sulfonamido)methyl)benzyl)pyrazolo[1,5-a]pyridine-2-carboxamide]
143 to 145 °C	Cn1nccc1C(=O)NCc1ccc(CNS(=O)(=O)c2ccc3c(c2)CCO3)cc1 [Ic, N-(4-((2,3-dihydrobenzofuran-5-sulfonamido)methyl)benzyl)-1-methyl-1H-pyrazole-5-carboxamide]
149 to 151 °C	O=C(NCc1ccc(CNS(=O)(=O)c2ccc3c(c2)CCO3)cc1)c1cccc2c1COC2 [Id, N-(4-((2,3-dihydrobenzofuran-5-sulfonamido)methyl)benzyl)-1,3-dihydroisobenzofuran-4-carboxamide]
225 to 227 °C	O=C(NCc1ccc(CNS(=O)(=O)c2ccc(F)cc2F)cc1)c1ncc[nH]1 [Ie, N-(4-((2,4-difluorophenylsulfonamido)methyl)benzyl)-1H-imidazole-2-carboxamide]
163 to 165 °C	O=C(NCc1ccc(CNS(=O)(=O)c2cccc(F)c2)cc1)c1cc2ccccn2n1 [Ih, N-(4-((3-fluorophenylsulfonamido)methyl)benzyl)pyrazolo[1,5-a]pyridine-2-carboxamide]
192 to 194 °C	O=C(NCc1ccc(CNS(=O)(=O)c2ccc(F)c(F)c2)cc1)c1cnc2ccccn12 [Ii, N-(4-((3,4-difluorophenylsulfonamido)methyl)benzyl)imidazo[1,2-a]pyridine-3-carboxamide]
138 to 140 °C	O=C(NCc1ccc(CNS(=O)(=O)c2ccccc2F)cc1)c1cc2ccccn2n1 [Ij, N-(4-((2-fluorophenylsulfonamido)methyl)benzyl)pyrazolo[1,5-a]pyridine-2-carboxamide]
